# Reference: PubChem BioAssay AID720589 (Broad Institute, 2013)
# Calls of active or inactive are those of the source.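 The calls were made as follows: active = fitted curve drops below -35% activity at a concentration within twice the top valid tested dose; inconclusive = no clear call, values can overlap the other calls; inactive = signal rising instead of falling, among other cases.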
# Assay: HepG2 hepatoma cell cytotoxicity, dose response, cytotoxicity control, CellTiter-Glo luminescence, cherry-pick, set 3 (AID 720589)
# Conditions: HepG2 viability, ATP luminescence (CellTiter-Glo), 72 h, stronger effect = lower value, 0% = untreated, negative = ATP loss
smiles,measurement,setting,value
CCc1c(C(=O)NN2C(=O)C3CCCCC3C2=O)csc1C (stereo not given),max activity,at 0.3 µM,-31.9% (inactive)
CN1C(=O)c2cc(NC(=O)c3ccc(Cl)cc3)ccc2OC[C@@H]2O[C@@H](CC(=O)NCc3cccc(F)c3)CC[C@H]21,max activity,at 26 µM,-22.6% (inactive)
COCCOC(=O)N1C(=O)[C@@]2(c3cc(C#CCC(C(=O)OC)C(=O)OC)ccc31)[C@H](c1ccccc1OCCO)N1[C@H](c3ccccc3)[C@H](c3ccccc3)OC(=O)[C@H]1[C@@H]2C(=O)N1CCN(c2ncccn2)CC1,max activity,at 0.1 µM,-30.6% (inactive)
COC(=O)C[C@@H]1CC[C@@H]2[C@@H](COc3ccc(NC(=O)Nc4ccccc4C)cc3C(=O)N2C)O1,max activity,at 0.3 µM,-23.1% (inactive)
C[C@H]1CN([C@@H](C)CO)C(=O)Cc2cc(NC(=O)CCCCCC(=O)Nc3ccccc3N)ccc2O[C@H]1CN(C)Cc1ccc(Cl)c(Cl)c1,max activity,at 23.5 µM,-29.2% (inactive)
COC(=O)C[C@H]1CC[C@@H](NC(=O)Nc2ccc(C(F)(F)F)cc2)[C@H](CO)O1,max activity,at 8 µM,-14.3% (inactive)
Cc1c(Cl)cccc1NC(=O)CCC(=O)N/N=C/c1ccc[nH]1,max activity,at 0.9 µM,21.7% (inactive)
CCOc1ccc(N=Nc2ccc(O)c3ncccc23)cc1,max activity,at 26 µM,-26.7% (inactive)
C[C@H](CO)N1C[C@H](C)[C@H](CN(C)Cc2ccccc2)Oc2ccc(NC(=O)CCCCCC(=O)Nc3ccccc3N)cc2CC1=O,max activity,at 23.5 µM,-23.9% (inactive)
CC(=O)Nc1cc(C(=O)NCc2ccco2)ccc1Sc1ccc(F)cc1,max activity,at 0.1 µM,-21.9% (inactive)
O=C(N/N=C/c1ccc[nH]1)c1cc(-c2ccc(Cl)cc2)nc2ccccc12,max activity,at 26 µM,-21.3% (inactive)
O=C(O)c1ccc(N/N=C/c2ccc3nccnc3c2)cc1,max activity,at 26 µM,-27.1% (inactive)
CN(C)C(=S)N=Nc1[nH]c2ccccc2c1O,max activity,at 0.035 µM,24.6% (inactive)
S=c1[nH]nc(-c2cc(-c3ccccc3)n[nH]2)n1/N=C/C(Br)=C/c1ccccc1,max activity,at 0.9 µM,-17.9% (inactive)
Cc1noc(C)c1NC(=O)Nc1ccc2c(c1)CC(=O)N([C@@H](C)CO)C[C@@H](C)[C@@H](CN(C)Cc1ccc(Cl)c(Cl)c1)O2,max activity,at 0.1 µM,36.5% (inactive)
C[C@@H]1CN([C@H](C)CO)S(=O)(=O)c2ccc(C#CC3CC3)cc2O[C@@H]1CN(C)Cc1ccccc1F,max activity,at 2.85 µM,-22% (inactive)
CC(=O)c1ccc(N(C(=O)Cn2nnc3ccccc32)C(C(=O)NCc2ccccc2)c2ccccn2)cc1 (stereo not given),max activity,at 8 µM,-38% (inactive)
COc1ccccc1-c1cn(CC[C@H]2CC[C@@H](NC(=O)C3CCCC3)[C@@H](CO)O2)nn1,max activity,at 0.011 µM,18.9% (inactive)
CCn1c(C)cc(C(=O)CN2C(=O)c3ccccc3S2(=O)=O)c1C,max activity,at 0.1 µM,-11.5% (inactive)
Cc1cc(C(=O)Nc2ccc3c(c2)C(=O)N(C)[C@@H]2CC[C@H](CC(=O)N[C@H](C)c4ccccc4)O[C@H]2CO3)no1,max activity,at 2.85 µM,-28.2% (inactive)
O=C1c2ccc3c4c(ccc(c24)C(=O)N1c1cccc(O)c1)C(=O)N(c1cccc(O)c1)C3=O,max activity,at 2.85 µM,-25.5% (inactive)
CCOC(=O)Cc1ccc(NC(=O)c2ccccc2Br)cc1,max activity,at 0.035 µM,-16.1% (inactive)
COc1ccc2oc(-c3ccccc3)cc(=O)c2c1,max activity,at 8 µM,25.1% (inactive)
C[C@H](CO)N1C[C@H](C)[C@H](CN(C)Cc2ccc(C(=O)Nc3ccccc3N)cc2)Oc2ccc(NS(=O)(=O)c3cccs3)cc2C1=O,max activity,at 2.85 µM,-29.1% (inactive)
COC(=O)c1cccc(NC(=O)NC(=O)c2ccccc2Cl)c1,max activity,at 0.9 µM,-19.2% (inactive)
COc1ccc(C2=Nn3c(nnc3-c3ccccc3OC)SC2)cc1OCC1CC1,max activity,at 0.035 µM,-29% (inactive)
COC(=O)CC1(C(=O)OC)Oc2ccc(Br)cc2C(=O)N1c1cccc(Cl)c1Cl (stereo not given),max activity,at 26 µM,-23% (inactive)
Cc1ccc(Cc2c(-c3ccco3)nc3c(C)cc(Br)cn23)cc1,max activity,at 0.3 µM,-46.1% (inactive)
Cc1c(N=Cc2cc(Br)cc(Br)c2O)cccc1C(=O)O,max activity,at 26 µM,-9.11% (inactive)
C[C@H]1CN([C@@H](C)CO)C(=O)Cc2cc(NC(=O)CCCCCC(=O)Nc3ccccc3N)ccc2O[C@H]1CN(C)Cc1ccc(Oc2ccccc2)cc1,max activity,at 0.1 µM,-23.9% (inactive)
CC(C)CN(C(=O)CN1CCOCC1)c1c(N)n(CC(C)C)c(=O)[nH]c1=O,max activity,at 0.3 µM,-39% (inactive)
CCNC(=O)c1cccc(S(=O)(=O)N2CCCCCC2)c1,max activity,at 0.011 µM,-31.4% (inactive)
COc1ccc(C2=Nn3c([n+](C)c4ccccc43)SC2)cc1,max activity,at 8 µM,-28.7% (inactive)
CCN1C/C(=C/c2ccc(OC)c(O)c2)C(=O)/C(=C/c2ccc(OC)c(O)c2)C1,max activity,at 0.011 µM,-39.6% (inactive)
Cc1noc(C)c1C(=O)Nc1sccc1C(N)=O,max activity,at 0.1 µM,-22.6% (inactive)
COc1ccc(-c2ccc3c(c2)[C@H]2[C@H](CCN2S(=O)(=O)c2ccc(OC)cc2)[C@@H](CO)N3C)cc1,max activity,at 26 µM,-27% (inactive)
CC(C)c1ccccc1NC(=O)COC(=O)CCN1C(=O)/C(=C\C=C\c2ccccc2)SC1=S,max activity,at 8 µM,-10% (inactive)
CCCN(C)C[C@H]1Oc2ncc(-c3ccccc3)cc2C(=O)N([C@@H](C)CO)C[C@H]1C,max activity,at 26 µM,18.2% (inactive)
Nc1sc(-c2ccccc2)cc1-c1n[nH]c(=S)n1C1CCCCC1,max activity,at 26 µM,-25.2% (inactive)
Cc1ccc(C(CC(=O)O)Nc2nc(N3CCOCC3)nc(N3CCOCC3)n2)cc1 (stereo not given),max activity,at 26 µM,36.9% (inactive)
COc1cc(OC)cc(-c2cc3nc(C)c(CCC(=O)NCc4ccccc4)c(C)n3n2)c1,max activity,at 2.85 µM,23.9% (inactive)
COc1ccc(/C=C2\SC(=O)N(CCCC(=O)Nc3cc(Cl)ccc3C(=O)O)C2=O)cc1,max activity,at 0.035 µM,-25.6% (inactive)
CCS(=O)(=O)N1Cc2ccccc2CC1C(=O)Nc1nnc(SCc2ccc(C#N)cc2)s1 (stereo not given),max activity,at 0.011 µM,21.9% (inactive)
CN(C)c1ccc(N=Nc2ccc(C(=O)O)cc2)cc1,max activity,at 0.3 µM,-28.7% (inactive)
Cc1cc(Br)ccc1N=C1C(=O)Nc2ccccc21,max activity,at 0.1 µM,-28.8% (inactive)
Cc1sc2nc(CN3CCC(C)CC3)nc(Cl)c2c1C,max activity,at 0.1 µM,16.4% (inactive)
CCc1ccc(S(=O)(=O)c2ccc(-n3nc(C)cc3N)cc2)cc1,max activity,at 8 µM,24% (inactive)
COc1ccc(/C=C2/SC(=S)N(CCCC(=O)Nc3ccccc3C(=O)O)C2=O)cc1,max activity,at 0.9 µM,-31.4% (inactive)
COc1ccc(-c2nc3c(s2)CCc2onc(-c4ccc(OC)cc4)c2-3)cc1,max activity,at 26 µM,-25.8% (inactive)
C(=Cc1c[nH]c2ccccc12)c1ccc2ccccc2n1,max activity,at 2.85 µM,-21.4% (inactive)
COC(=O)C[C@@H]1CC[C@@H]2[C@H](COc3ccc(NC(=O)c4ccc(F)c(F)c4)cc3C(=O)N2C)O1,max activity,at 0.035 µM,-21% (inactive)
COc1ccc(C(=O)OCC(=O)Nc2ccc(Cl)c(C(F)(F)F)c2)c(OC)c1OC,max activity,at 0.011 µM,-15% (inactive)
N#C[C@H]1[C@H](c2ccc(-c3ccccc3F)cc2)[C@@H](CO)N1C(=O)Cc1ccccc1,max activity,at 0.3 µM,-22.2% (inactive)
C#CCOCCOCCOCCNc1nc(N2CCN(C(=O)CCCCCCCCCCNC(=O)Cn3cc(C[C@@H](C)O)nn3)CC2)nc(N2CCN(C(=O)CCCCCCCCCCNC(=O)[C@H](CO)n3cc(CCCSC)nn3)CC2)n1,max activity,at 26 µM,39.2% (inactive)
COc1ccc(CCCNC(=O)C2Cc3c(-c4ccc5c(c4)OCO5)ccnc3O2)cc1 (stereo not given),max activity,at 0.035 µM,-34% (inactive)
CC(=O)Nc1ccc(OCC(=O)N(CC(C)C)C2CCS(=O)(=O)C2)cc1 (stereo not given),max activity,at 0.011 µM,42.5% (inactive)
O=C(O)c1ccc2cc(-c3ccccc3)[nH]c2c1,max activity,at 26 µM,-25% (inactive)
CC(Oc1cccc(Cl)c1)C(=O)NCCCCc1ccccc1 (stereo not given),max activity,at 2.85 µM,18.7% (inactive)
Cc1ccc(S(=O)(=O)N(C)C[C@H]2Oc3c(cccc3N(C)C)C(=O)N([C@@H](C)CO)C[C@@H]2C)cc1,max activity,at 0.1 µM,-28.2% (inactive)
O=C1c2ccccc2C(=O)N1CCCCNc1ccccc1,max activity,at 0.3 µM,-34.9% (inactive)
OCCN1CCN(C(=S)c2ccc(-c3ccccc3)cc2)CC1,max activity,at 0.3 µM,-28.5% (inactive)
Cc1cc(C)cc(OCC(=O)OCC(=O)Nc2cc(S(=O)(=O)N3CCOCC3)ccc2C)c1,max activity,at 0.1 µM,-15.3% (inactive)
CN(C)c1ccc(-c2ccnc3c2CC(C)(C(=O)NCc2ccco2)O3)cc1 (stereo not given),max activity,at 8 µM,-25.6% (inactive)
N#C[C@H]1N[C@H](CO)[C@H]1c1ccc(C#Cc2ccc(F)cc2)cc1,max activity,at 26 µM,-31.2% (inactive)
CCc1ccc(/C=C2\SC(=S)N(CCCC(=O)Nc3cc(C)on3)C2=O)cc1,max activity,at 0.9 µM,-32.1% (inactive)
Cc1ccccc1S(=O)(=O)N1CC[C@@H]2[C@@H](CO)Nc3ccc(-c4ccc(C#N)cc4)cc3[C@@H]21,max activity,at 26 µM,-21.8% (inactive)
O=c1c2ccccc2oc2ccc(C#CC3(O)CCCCC3)cc12,max activity,at 0.035 µM,-33.7% (inactive)
COc1ccc(C(C)(O)c2nc(-c3cccc(F)c3)cs2)cc1 (stereo not given),max activity,at 26 µM,-21.6% (inactive)
CN(CCO)c1ccc(/C=N/Nc2nncc3ccccc23)cc1,max activity,at 26 µM,-29.7% (inactive)
COc1ccccc1CNC(=O)C[C@@H]1CC[C@H]2[C@@H](COC[C@H](O)CN2C(=O)Nc2ccc(C(F)(F)F)cc2)O1,max activity,at 8 µM,-30.7% (inactive)
COCC(=O)Nc1ccc2c(c1)[C@@H]1C[C@@H](CC(=O)NCc3ccc(-c4ccccc4)cc3)O[C@@H](CO)[C@@H]1O2,max activity,at 2.85 µM,-28% (inactive)
N#C[C@H]1[C@H](c2ccc(C#Cc3ccccc3F)cc2)[C@@H](CO)N1C(=O)C1CCOCC1,max activity,at 2.85 µM,-21.8% (inactive)
Cc1ccsc1C(=O)OCC(=O)NCCC1=CCCCC1,max activity,at 0.011 µM,-13% (inactive)
COc1ccc(CNc2ncc(-c3ccc(F)cc3)n2C)c2ccccc12,max activity,at 26 µM,-23.1% (inactive)
C(=N\Nc1ccc2ccccc2n1)/c1ccc2c(c1)OCCO2,max activity,at 26 µM,-26.2% (inactive)
